Source: publication PMC12519771 (BMC Cancer, 2025)
Each block holds one compound with its values, some of them ahead of it.

Assays:
[1] = Adverse events (CTCAE v5.0), safety analysis set
Description: Adverse events were recorded continuously until 30 (± 7) days after discontinuation of study treatment and graded using the National Cancer Institute Common Terminology Criteria for Adverse Events v5.0.

[2] = human, in vivo, po, 480 mg
Description: After completion of Part A, patients continued to Part B of the study. […] Treatment with paclitaxel continued for at least six cycles unless the patient experienced unacceptable paclitaxel-related toxicity or disease progression.
For patients with dose interruption in Cycle 2 before Week 2 Day 5, sample collection could be postponed to Week 2 Day 5 of the subsequent or later cycle, providing there was no dose interruption before Week 2 Day 5 of that cycle.

[3] = cited from earlier work
[4] = related to capivasertib only per investigator, N = 16
[5] = oral administration, Western and Japanese patients

AUC(0–12), gMean gCV % [2]: 5630 62.2 h×ng/mL | AUC(0–48), gMean gCV % [2]: 7244 58.8 h×ng/mL | AUCinf, gMean gCV % [2]: 7397 58.7 h×ng/mL | CL/F, gMean gCV % [2]: 64.9 L/h | tmax, median (range) [2]: 1.0 h
Compound: NC1(C(=O)N[C@@H](CCO)c2ccc(Cl)cc2)CCN(c2nc[nH]c3nccc2-3)CC1 [Capivasertib, capivasertib]
patients with adverse events leading to dose interruptions of capivasertib ([1]; N = 16): 87.5% | patients with adverse events leading to dose reductions of capivasertib ([1]; N = 16): 31.3% | Anaemia, Grade ≥3 [1, 4]: 0 n (%) | Anaemia, any grade [1, 4]: 4 (25.0) n (%) | Any adverse event, Grade ≥3 [1, 4]: 9 (56.3) n (%) | Any adverse event, any grade [1, 4]: 16 (100.0) n (%) | Aspartate aminotransferase increased, Grade ≥3 [1, 4]: 0 n (%) | Aspartate aminotransferase increased, any grade [1, 4]: 1 (6.3) n (%) | Blood albumin decreased, Grade ≥3 [1, 4]: 0 n (%) | Blood albumin decreased, any grade [1, 4]: 1 (6.3) n (%) | Blood bilirubin increased, Grade ≥3 [1, 4]: 0 n (%) | Blood bilirubin increased, any grade [1, 4]: 2 (12.5) n (%) | Blood creatinine increased, Grade ≥3 [1, 4]: 0 n (%) | Blood creatinine increased, any grade [1, 4]: 2 (12.5) n (%) | Blood triglycerides increased, Grade ≥3 [1, 4]: 0 n (%) | Blood triglycerides increased, any grade [1, 4]: 0 n (%) | Blood uric acid increased, Grade ≥3 [1, 4]: 0 n (%) | Blood uric acid increased, any grade [1, 4]: 1 (6.3) n (%) | Diarrhoea, Grade ≥3 [1, 4]: 0 n (%) | Diarrhoea, any grade [1, 4]: 11 (68.8) n (%) | Glycosylated haemoglobin increased, Grade ≥3 [1, 4]: 0 n (%) | Glycosylated haemoglobin increased, any grade [1, 4]: 0 n (%) | Hyperglycaemia, Grade ≥3 [1, 4]: 2 (12.5) n (%) | Hyperglycaemia, any grade [1, 4]: 15 (93.8) n (%) | Hypoalbuminaemia, Grade ≥3 [1, 4]: 0 n (%) | Hypoalbuminaemia, any grade [1, 4]: 4 (25.0) n (%) | Hypocalcaemia, Grade ≥3 [1, 4]: 0 n (%) | Hypocalcaemia, any grade [1, 4]: 1 (6.3) n (%) | Hypokalaemia, Grade ≥3 [1, 4]: 0 n (%) | Hypokalaemia, any grade [1, 4]: 1 (6.3) n (%) | Hypomagnesaemia, Grade ≥3 [1, 4]: 0 n (%) | Hypomagnesaemia, any grade [1, 4]: 4 (25.0) n (%) | Hyponatraemia, Grade ≥3 [1, 4]: 0 n (%) | Hyponatraemia, any grade [1, 4]: 5 (31.3) n (%) | Hypophosphataemia, Grade ≥3 [1, 4]: 0 n (%) | Hypophosphataemia, any grade [1, 4]: 0 n (%) | Nausea, Grade ≥3 [1, 4]: 0 n (%) | Nausea, any grade [1, 4]: 2 (12.5) n (%) | Neutrophil count decreased, Grade ≥3 [1, 4]: 0 n (%) | Neutrophil count decreased, any grade [1, 4]: 1 (6.3) n (%) | Oedema peripheral, Grade ≥3 [1, 4]: 0 n (%) | Oedema peripheral, any grade [1, 4]: 1 (6.3) n (%) | Peripheral sensory neuropathy, Grade ≥3 [1, 4]: 0 n (%) | Peripheral sensory neuropathy, any grade [1, 4]: 0 n (%) | Platelet count decreased, Grade ≥3 [1, 4]: 0 n (%) | Platelet count decreased, any grade [1, 4]: 1 (6.3) n (%) | Proteinuria, Grade ≥3 [1, 4]: 0 n (%) | Proteinuria, any grade [1, 4]: 5 (31.3) n (%) | Pyrexia, Grade ≥3 [1, 4]: 0 n (%) | Pyrexia, any grade [1, 4]: 6 (37.5) n (%) | Rash (group term), Grade ≥3 [1, 4]: 5 (31.3) n (%) | Rash (group term), any grade [1, 4]: 10 (62.5) n (%) | Stomatitis, Grade ≥3 [1, 4]: 0 n (%) | Stomatitis, any grade [1, 4]: 1 (6.3) n (%) | Vomiting, Grade ≥3 [1, 4]: 0 n (%) | Vomiting, any grade [1, 4]: 1 (6.3) n (%) | Weight decreased, Grade ≥3 [1, 4]: 0 n (%) | Weight decreased, any grade [1, 4]: 0 n (%) | White blood cell count decreased, Grade ≥3 [1, 4]: 1 (6.3) n (%) | White blood cell count decreased, any grade [1, 4]: 2 (12.5) n (%) | dose proportionality of plasma exposure (AUC over the dosing interval and Cmax) ([3]; doses ranging from 80 mg to 800 mg): approximately dose-proportional | median tmax [3, 5]: 1 to 2 h | terminal elimination half-life (t½λz) [3, 5]: approximately 10 h

Compound: CC(=O)O[C@H]1C(=O)[C@@]2(C)[C@H]([C@H](OC(=O)c3ccccc3)[C@]3(O)C[C@H](OC(=O)[C@H](O)[C@@H](NC(=O)c4ccccc4)c4ccccc4)C(C)=C1C3(C)C)[C@]1(OC(C)=O)CO[C@@H]1C[C@@H]2O [paclitaxel]
patients with adverse events leading to dose interruptions of paclitaxel ([1]; human, in vivo): 75.0% | patients with adverse events leading to dose reductions of paclitaxel ([1]; human, in vivo): 31.3%
